Key:
[1] = system: NCI-H2122; test: Cytotoxicity against human NCI-H2122 cells incubated for 4 days; assay type: functional, cell-based; conditions: NCI-H2122, 96 h
[2] = system: NCI-H1155; test: Cytotoxicity against human NCI-H1155 cells expressing CYP4F11 incubated for 4 days in presence of sodium oleate; assay type: functional, cell-based; conditions: NCI-H1155, 96 h
[3] = target: T1, Acyl-CoA desaturase 1 (Mus musculus) (UniProt P13516); test: Inhibition of SCD1 in CD1 mouse liver at 3 uM using stearoyl [9,10-3H] CoA as substrate and NADPH incubated for 2 hrs by scintillation counting method
T1 sequence (whole entry): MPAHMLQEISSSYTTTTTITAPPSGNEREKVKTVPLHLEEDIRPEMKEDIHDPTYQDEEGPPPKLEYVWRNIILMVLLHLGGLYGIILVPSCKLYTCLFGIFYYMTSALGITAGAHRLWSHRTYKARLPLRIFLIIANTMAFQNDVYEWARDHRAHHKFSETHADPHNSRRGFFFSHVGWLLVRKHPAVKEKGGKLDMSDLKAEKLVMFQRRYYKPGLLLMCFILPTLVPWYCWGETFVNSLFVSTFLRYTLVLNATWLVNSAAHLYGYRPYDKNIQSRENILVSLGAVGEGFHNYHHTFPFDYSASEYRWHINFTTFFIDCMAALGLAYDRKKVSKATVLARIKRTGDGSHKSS

[4] = system: NCI-H1155; test: Cytotoxicity against human NCI-H1155 cells expressing pLVX empty vector incubated for 4 days; assay type: functional, cell-based; conditions: NCI-H1155, 96 h
[5] = Half life in mouse liver S9 fraction by LC-MS/MS analysis; assay type: ADME, subcellular
[6] = system: NCI-H1155; test: Cytotoxicity against human NCI-H1155 cells expressing CYP4F11 incubated for 4 days; assay type: functional, cell-based; conditions: NCI-H1155, 96 h
[7] = system: NCI-H1155; test: Cytotoxicity against human NCI-H1155 cells incubated for 4 days in presence of sodium oleate; assay type: functional, cell-based; conditions: NCI-H1155, 96 h
[8] = target: T1, Acyl-CoA desaturase 1 (Mus musculus); test: Inhibition of SCD1 in CD1 mouse liver at 100 nM using stearoyl [9,10-3H] CoA as substrate and NADPH incubated for 2 hrs by scintillation counting method

Compound	EC50 [1]	other results
COc1ccc(CCNC(=O)N(C)C(=O)c2ccc(C(=O)c3ccccc3)cc2)cc1	6.2 µM	
COc1ccc(CCNC(=O)C(=O)Nc2ccccc2OC)cc1	> 50 µM	
COc1ccc(CCNC(=O)NC(=O)c2ccc(C(=O)N3CCCCC3)cc2)cc1	2.3 µM	
O=C(NCCc1cccc(O)c1)C(=O)Nc1ccc(Cl)cc1	2.4 µM	
COc1ccc(CCN(C)C(=O)C(=O)Nc2ccc(Cl)cc2)cc1	10.5 µM	
COc1ccc(CCNC(=O)C(=O)Nc2cnccn2)cc1	> 50 µM	
COc1ccc(CCNC(=O)c2ccc3cccc(O)c3n2)cc1	30 µM	
COc1ccc(CCNC(=O)NC(=O)c2ccc(OC)cc2)cc1	1 µM	
COc1ccc(CCNC(=O)NC(=O)c2ccc(-c3ccccc3)cc2)cc1	0.17 µM	
O=C(NCCc1ccc(F)cc1)C(=O)Nc1ccc(Cl)cc1	48 µM	
COc1ccc(CCNC(=O)C(=O)NC2CCCCCC2)cc1	> 50 µM	
COc1ccc(CCNC(=O)NC(=O)c2ccc(OCc3ccccc3)cc2)cc1	0.031 µM	
COc1ccc(CCNC(=O)Nc2ccc(Cl)cc2)cc1	> 50 µM	
C#CCOc1ccc(C(=O)c2ccc(NC(=O)C(=O)NCCc3ccc(O)cc3)cc2)cc1	0.058 µM	EC50 [2]: > 50 µM; inhibition [3]: > 98%; EC50 [4]: 0.008 µM; half-life [5]: 13 min; EC50 [6]: 0.21 µM; EC50 [7]: > 50 µM
O=C(NCCc1ccc(Cl)cc1)C(=O)Nc1ccc(Cl)cc1	> 50 µM	
COc1ccc(CCNC(=O)C(=O)Nc2ccc(C)c(OC)c2)cc1	> 50 µM	
COc1ccc(CCNC(=O)C(=O)Nc2ccncc2)cc1	> 50 µM	
COc1ccc(CCNC(=O)C(=O)Nc2cncc(Cl)c2)cc1	5.9 µM	
COc1ccc(CCNC(=O)C(=O)N2CCc3ccccc3C2)cc1	> 50 µM	
COc1ccc(CCNC(=O)C(=O)N2CCc3ccccc32)cc1	> 50 µM	
COc1ccc(CCNC(=O)C(=O)N2CCCC2)cc1	> 50 µM	
COc1ccc(CCNC(=O)C(=O)Nc2ccccc2)cc1	0.46 µM	
COc1cccc(CCNC(=O)C(=O)Nc2ccc(Cl)cc2)c1	> 50 µM	
COc1ccc(CCNC(=O)C(=O)Nc2ccccc2Br)cc1	> 50 µM	
COc1ccc(CCNC(=O)NC(=O)c2ccc(Oc3ccccc3)cc2)cc1	0.031 µM	
COc1ccc(CCNC(=O)COc2ccc(Cl)cc2)cc1	> 50 µM	
CC(CNC(=O)C(=O)Nc1ccc(Cl)cc1)c1ccc(O)cc1 (stereo unspecified)	4 µM	EC50 [2]: > 50 µM; EC50 [4]: > 50 µM; inhibition [8]: 28%; EC50 [6]: > 50 µM; EC50 [7]: > 50 µM
COc1ccc(CCCCNC(=O)c2ccc(Cl)cc2)cc1	3.27 µM	
COc1ccc(CCNC(=O)C(=O)Nc2cncc(C)c2)cc1	2.6 µM	
COc1ccc(CCNC(=O)C(=O)Nc2cccc(Br)n2)cc1	> 50 µM	
